Assay results from PubChem BioAssay AID1259411 (Chemical Carcinogenesis Research Information System (CCRIS), 2018).
Calls of active or inactive are those of the source. The rule behind the calls is not given here.

Tested on: rodent carcinogenicity bioassays, tumor incidence
Experiment: CCRIS carcinogenicity studies
Procedure, shortened: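 NCI-built, expert-reviewed records of carcinogenicity and related test outcomes (mutagenicity, tumor promotion/inhibition) compiled from published and report sources, historical span 1985-2011, not updated.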

SMILES: c1ccc2c(c1)c1cccc3ccc4cccc2c4c31
- carcinogen call (Species: RAT, Strain/Sex: OSBORNE-MENDEL/FEMALE, Route: LUNG IMPLANT, Dose: 0, 0.2, 1.0, 5.0 MG IN BEESWAX/TRIOCTANOIN (STUDY DURATION: LIFETIME), Dose: 0, 0.2, 1.0, 5.0 MG IN BEESWAX/TRIOCTANOIN (STUDY DURATION: LIFETIME)): inactive; negative

SMILES: OC(c1ccc(Cl)cc1)(c1cncnc1)c1ccccc1Cl (stereo not given)
- carcinogen call (Species: Rat, Strain/Sex: Wistar/Female (120/Control group; 80/Experimental group), Route: Oral, Dose: 0, 50, 130, 350 ppm in diet for 24 mo, study duration 24 mo, Dose: 0, 50, 130, 350 ppm in diet for 24 mo, study duration 24 mo): inactive; negative (nonstatistical increase in hepatocellular adenomas)
- carcinogen call (Species: Rat, Strain/Sex: Wistar/Male (120/Control group; 80/Experimental group), Route: Oral, Dose: 0, 50, 130, 350 ppm in diet for 24 mo, study duration 24 mo, Dose: 0, 50, 130, 350 ppm in diet for 24 mo, study duration 24 mo): inactive; negative (nonstatistical increase in hepatocellular adenomas)

SMILES: COc1ccc(N)c(C)c1
- carcinogen call (Species: MOUSE, Strain/Sex: B6C3F1/FEMALE, Route: GAVAGE, Dose: 0, 0.06, 0.11 G/KG (FOR 53 WK), Dose: 0, 0.06, 0.11 G/KG (FOR 53 WK)): inactive; negative
- carcinogen call (Species: RAT, Strain/Sex: F344/FEMALE, Route: GAVAGE, Dose: 0, 0.08, 0.16 G/KG, Dose: 0, 0.08, 0.16 G/KG, Tumor Site: Type of Lesion: URINARY BLADDER: TRANSITIONAL CELL CARCINOMA): active; positive
- carcinogen call (Species: RAT, Strain/Sex: F344/MALE, Route: GAVAGE, Dose: 0, 0.08, 0.16 G/KG, Dose: 0, 0.08, 0.16 G/KG, Tumor Site: Type of Lesion: URINARY BLADDER: TRANSITIONAL CELL CARCINOMA): active; positive

SMILES: CC#N
- carcinogen call (Species: MOUSE, Strain/Sex: B6C3F1/FEMALE, Route: INHALATION, Dose: 0, 50, 100, 200 PPM 6 HR/D 5 D/WK FOR 103 WK (STUDY DURATION: 105 WK), Dose: 0, 50, 100, 200 PPM 6 HR/D 5 D/WK FOR 103 WK (STUDY DURATION: 105 WK)): inactive; negative
- carcinogen call (Species: MOUSE, Strain/Sex: B6C3F1/MALE, Route: INHALATION, Dose: 0, 50, 100, 200 PPM 6 HR/D 5 D/WK FOR 103 WK (STUDY DURATION: 105 WK), Dose: 0, 50, 100, 200 PPM 6 HR/D 5 D/WK FOR 103 WK (STUDY DURATION: 105 WK)): inactive; negative
- carcinogen call (Species: RAT, Strain/Sex: F344/FEMALE, Route: INHALATION, Dose: 0, 100, 200, 400 PPM 6/HR/D 5 D/WK FOR 103 WK (STUDY DURATION: 105 WK), Dose: 0, 100, 200, 400 PPM 6/HR/D 5 D/WK FOR 103 WK (STUDY DURATION: 105 WK)): inactive; negative
- carcinogen call (Species: RAT, Strain/Sex: F344/MALE, Route: INHALATION, Dose: 0, 100, 200, 400 PPM 6/HR/D 5 D/WK FOR 103 WK (STUDY DURATION: 105 WK), Dose: 0, 100, 200, 400 PPM 6/HR/D 5 D/WK FOR 103 WK (STUDY DURATION: 105 WK), Tumor Site: Type of Lesion: LIVER: HEPATOCELLULAR ADENOMA, HEPATOCELLULAR CARCINOMA, HEPATOCELLULAR ADENOMA OR CARCINOMA): equivocal

SMILES: OC1C=Cc2c(cc3ccc4cccc5c6ccccc6c2c3c45)C1O (stereo not given)
- carcinogen call (Species: MOUSE, Strain/Sex: SWISS/FEMALE, Route: DERMAL, Dose: 0, 1, 4 NMOL IN 100 µL ACETONE 2/WK FOR 40 WK (STUDY DURATION: 48 WK), Dose: 0, 1, 4 NMOL IN 100 µL ACETONE 2/WK FOR 40 WK (STUDY DURATION: 48 WK), Tumor Site: Type of Lesion: SKIN: TUMORS): active; positive

SMILES: S=C=NCCc1ccccc1
- carcinogen call (Species: RAT, Strain/Sex: F344/MALE, Route: DIET (ORAL), Dose: 0.1% FOR 12 WK (STUDY DURATION: 48 WK)): inactive; negative (bladder hyperplasias observed)
- carcinogen call (Species: RAT, Strain/Sex: F344/MALE, Route: DIET (ORAL), Dose: 0.1% FOR 24 WK (STUDY DURATION: 48 WK)): inactive; negative (bladder hyperplasias observed)
- carcinogen call (Species: RAT, Strain/Sex: F344/MALE, Route: DIET (ORAL), Dose: 0.1% FOR 48 WK (STUDY DURATION: 48 WK)): inactive; negative (bladder hyperplasias and dysplasias observed)
- carcinogen call (Species: RAT, Strain/Sex: F344/MALE, Route: ORAL, Dose: 0.1% IN DIET FOR 32 WK, THEN SWITCHED TO BASAL DIET FOR 16 WK (STUDY DURATION: 48 WK), Tumor Site: Type of Lesion: URINARY BLADDER: CARCINOMA): active; positive
- carcinogen call (Species: RAT, Strain/Sex: F344/MALE, Route: ORAL, Dose: 0.1% IN DIET FOR 48 WK (STUDY DURATION: 48 WK), Tumor Site: Type of Lesion: URINARY BLADDER: CARCINOMA): active; positive

SMILES: O=C1CCCCCN1
- carcinogen call (Species: MOUSE, Strain/Sex: B6C3F1/FEMALE, Route: ORAL, Dose: 0, 7500, 15000 PPM IN DIET, Dose: 0, 7500, 15000 PPM IN DIET): inactive; negative
- carcinogen call (Species: MOUSE, Strain/Sex: B6C3F1/MALE, Route: ORAL, Dose: 0, 7500, 15000 PPM IN DIET, Dose: 0, 7500, 15000 PPM IN DIET): inactive; negative
- carcinogen call (Species: RAT, Strain/Sex: F344/FEMALE, Route: ORAL, Dose: 0, 3750, 7500 PPM IN DIET, Dose: 0, 3750, 7500 PPM IN DIET): inactive; negative
- carcinogen call (Species: RAT, Strain/Sex: F344/MALE, Route: ORAL, Dose: 0, 3750, 7500 PPM IN DIET, Dose: 0, 3750, 7500 PPM IN DIET): inactive; negative

SMILES: C1=CC2OC2C=C1 (stereo not given)
- carcinogen call (Species: MOUSE, Strain/Sex: SWISS/FEMALE, Route: INTRAPERITONEAL, Dose: 0, 7.4, 18.6 UMOL ADMINISTERED AS 3 UNEQUAL DOSES (1/7, 2/7, AND 4/7 OF THE TOTAL DOSE) OVER A 2-WK PERIOD (STUDY DURATI, Dose: 0, 7.4, 18.6 UMOL ADMINISTERED AS 3 UNEQUAL DOSES (1/7, 2/7, AND 4/7 OF THE TOTAL DOSE) OVER A 2-WK PERIOD (STUDY DURATI): inactive; negative
- carcinogen call (Species: MOUSE, Strain/Sex: SWISS/MALE, Route: INTRAPERITONEAL, Dose: 0, 7.4, 18.6 UMOL ADMINISTERED AS 3 UNEQUAL DOSES (1/7, 2/7, AND 4/7 OF THE TOTAL DOSE) OVER A 2-WK PERIOD (STUDY DURATI, Dose: 0, 7.4, 18.6 UMOL ADMINISTERED AS 3 UNEQUAL DOSES (1/7, 2/7, AND 4/7 OF THE TOTAL DOSE) OVER A 2-WK PERIOD (STUDY DURATI): inactive; negative

SMILES: CCCc1cc(=O)[nH]c(=S)[nH]1
- carcinogen call (Species: HAMSTER, Route: ORAL, Tumor Site: Type of Lesion: THYROID GLAND): active; positive
- carcinogen call (Species: MOUSE, Route: ORAL, Tumor Site: Type of Lesion: PITUITARY GLAND, THYROID GLAND): active; positive
- carcinogen call (Species: RAT, Route: ORAL, Tumor Site: Type of Lesion: THYROID GLAND): active; positive

SMILES: O=S1OCC2C(CO1)C1(Cl)C(Cl)=C(Cl)C2(Cl)C1(Cl)Cl (stereo not given)
- carcinogen call (Species: MOUSE, Strain/Sex: B6C3F1/FEMALE, Route: ORAL, Dose: 0, 2.0, 3.9 PPM IN DIET, TWA, Dose: 0, 2.0, 3.9 PPM IN DIET, TWA): inactive; negative
- carcinogen call (Species: MOUSE, Strain/Sex: NMRI/FEMALE, Route: ORAL, Dose: 0, 2, 6, 18 PPM IN THE DIET FOR 24 MO (STUDY DURATION: 24 MO), Dose: 0, 2, 6, 18 PPM IN THE DIET FOR 24 MO (STUDY DURATION: 24 MO)): inactive; negative
- carcinogen call (Species: MOUSE, Strain/Sex: NMRI/MALE, Route: ORAL, Dose: 0, 2, 6, 18 PPM IN THE DIET FOR 24 MO (STUDY DURATION: 24 MO), Dose: 0, 2, 6, 18 PPM IN THE DIET FOR 24 MO (STUDY DURATION: 24 MO)): inactive; negative
- carcinogen call (Species: Mouse, Strain/Sex: NMRI Hoe:NMRKf (SPF71)/Female (60/Group), Route: Oral, Dose: 0 (sesame oil), 2, 6, 18 ppm 97.1% endosulfan in diet for 24 mo, study duration 24 mo., Dose: 0 (sesame oil), 2, 6, 18 ppm 97.1% endosulfan in diet for 24 mo, study duration 24 mo.): inactive; negative
- carcinogen call (Species: Mouse, Strain/Sex: NMRI Hoe:NMRKf (SPF71)/Male (60/Group), Route: Oral, Dose: 0 (sesame oil), 2, 6, 18 ppm 97.1% endosulfan in diet for 24 mo, study duration 24 mo., Dose: 0 (sesame oil), 2, 6, 18 ppm 97.1% endosulfan in diet for 24 mo, study duration 24 mo.): inactive; negative
- carcinogen call (Species: RAT, Strain/Sex: OSBORNE-MENDEL/FEMALE, Route: ORAL, Dose: 0, 223, 445 PPM IN DIET, TWA, Dose: 0, 223, 445 PPM IN DIET, TWA): inactive; negative
- carcinogen call (Species: RAT, Strain/Sex: SPRAGUE-DAWLEY/FEMALE, Route: ORAL, Dose: 0, 3, 7.5, 15, 75 PPM IN THE DIET FOR 104 WK (STUDY DURATION: 104 WK), Dose: 0, 3, 7.5, 15, 75 PPM IN THE DIET FOR 104 WK (STUDY DURATION: 104 WK)): inactive; negative
- carcinogen call (Species: RAT, Strain/Sex: SPRAGUE-DAWLEY/MALE, Route: ORAL, Dose: 0, 3, 7.5, 15, 75 PPM IN THE DIET FOR 104 WK (STUDY DURATION: 104 WK), Dose: 0, 3, 7.5, 15, 75 PPM IN THE DIET FOR 104 WK (STUDY DURATION: 104 WK)): inactive; negative
- carcinogen call (Species: Rat, Strain/Sex: Crl:CD (SD) BR/Female (50/Group), Route: Oral, Dose: 0, 3.0, 7.5, 15.0, 75.0 ppm in corn oil in diet for 104 wk, study duration 104 wk, Dose: 0, 3.0, 7.5, 15.0, 75.0 ppm in corn oil in diet for 104 wk, study duration 104 wk): inactive; negative
- carcinogen call (Species: Rat, Strain/Sex: Crl:CD (SD) BR/Male (50/Group), Route: Oral, Dose: 0, 3.0, 7.5, 15.0, 75.0 ppm in corn oil in diet for 104 wk, study duration 104 wk, Dose: 0, 3.0, 7.5, 15.0, 75.0 ppm in corn oil in diet for 104 wk, study duration 104 wk): inactive; negative
